What all share (assay type): cell-based
Experiment [1] concerns the target T1, 5-hydroxytryptamine receptor 6 (Homo sapiens, UniProt P50406). In words: Displacement of [3H]LSD from human recombinant 5-HT6 receptor expressed in CHO-K1 cells at 1 uM incubated for 3 hrs by scintillation counting analysis. In general terms: Displacement assays read how much labelled ligand stays bound in the presence of the test substance.
Experiment [2] concerns the target T2, Histamine H3 receptor (Homo sapiens, UniProt Q9Y5N1). In words: Displacement of N-alpha-[methyl-3H]methylhistamine dihydrochloride from human recombinant histamine H3 receptor expressed in CHO-K1 cells at 1 uM incubated for 30 mins by liquid scintillation counting analysis.
The target of experiment [3] is T3, D(3) dopamine receptor (Homo sapiens, UniProt P35462). Kind of experiment: Displacement of [3H]raclopride from human recombinant dopamine D3 receptor expressed in CHO-K1 cells at 1 uM incubated for 120 mins by liquid scintillation counting analysis.
The target in experiment [4] is T3, D(3) dopamine receptor. In words: Displacement of [3H]raclopride from human recombinant dopamine D3 receptor expressed in CHO-K1 cells incubated for 120 mins by liquid scintillation counting analysis.
The target in experiment [5] is T4, D(2) dopamine receptor (Homo sapiens, UniProt P14416). Kind of experiment: Displacement of [3H]raclopride from human recombinant dopamine D2 long receptor expressed in CHO-K1 cells at 1 uM incubated for 120 mins by scintillation counting analysis.
For experiment [6], the target named is T2, Histamine H3 receptor. In words: Displacement of N-alpha-[methyl-3H]methylhistamine dihydrochloride from human recombinant histamine H3 receptor expressed in CHO-K1 cells incubated for 30 mins by liquid scintillation counting analysis.
The target in experiment [7] is T4, D(2) dopamine receptor. Kind of experiment: Displacement of [3H]raclopride from human recombinant dopamine D2 long receptor expressed in CHO-K1 cells incubated for 120 mins by scintillation counting analysis.
Experiment [8] addresses T1, 5-hydroxytryptamine receptor 6. Kind of experiment: Displacement of [3H]LSD from human recombinant 5-HT6 receptor expressed in CHO-K1 cells incubated for 3 hrs by scintillation counting analysis.
The species named for experiment [9] is Homo sapiens. In words: Selectivity index, ratio of Ki for human recombinant dopamine D3 receptor expressed in CHO-K1 cells to Ki for dopamine D2 long receptor expressed in CHO-K1 cells.

T4 sequence (P14416 whole entry): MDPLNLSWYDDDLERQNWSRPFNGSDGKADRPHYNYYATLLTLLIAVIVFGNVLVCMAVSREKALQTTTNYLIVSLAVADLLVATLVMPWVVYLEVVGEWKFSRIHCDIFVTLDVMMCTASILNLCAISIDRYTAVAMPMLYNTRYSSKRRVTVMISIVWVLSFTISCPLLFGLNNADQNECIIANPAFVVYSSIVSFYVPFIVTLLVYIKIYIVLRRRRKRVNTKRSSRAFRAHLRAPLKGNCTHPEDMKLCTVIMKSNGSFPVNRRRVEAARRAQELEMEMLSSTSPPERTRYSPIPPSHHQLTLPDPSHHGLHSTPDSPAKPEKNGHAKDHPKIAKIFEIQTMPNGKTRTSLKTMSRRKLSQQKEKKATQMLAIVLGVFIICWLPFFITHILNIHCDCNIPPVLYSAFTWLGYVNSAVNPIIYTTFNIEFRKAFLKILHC
T3 sequence (P35462 whole entry): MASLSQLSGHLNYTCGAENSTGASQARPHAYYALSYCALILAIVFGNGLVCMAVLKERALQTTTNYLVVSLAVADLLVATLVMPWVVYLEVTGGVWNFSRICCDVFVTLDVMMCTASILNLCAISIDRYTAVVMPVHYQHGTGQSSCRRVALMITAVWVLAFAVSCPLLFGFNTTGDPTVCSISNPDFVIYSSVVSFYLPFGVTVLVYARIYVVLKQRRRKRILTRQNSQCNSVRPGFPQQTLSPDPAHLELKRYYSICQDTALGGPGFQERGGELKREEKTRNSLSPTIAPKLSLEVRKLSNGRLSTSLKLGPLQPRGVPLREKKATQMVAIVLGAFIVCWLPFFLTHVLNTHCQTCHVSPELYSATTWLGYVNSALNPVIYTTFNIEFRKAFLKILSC
T2 sequence (Q9Y5N1 whole entry): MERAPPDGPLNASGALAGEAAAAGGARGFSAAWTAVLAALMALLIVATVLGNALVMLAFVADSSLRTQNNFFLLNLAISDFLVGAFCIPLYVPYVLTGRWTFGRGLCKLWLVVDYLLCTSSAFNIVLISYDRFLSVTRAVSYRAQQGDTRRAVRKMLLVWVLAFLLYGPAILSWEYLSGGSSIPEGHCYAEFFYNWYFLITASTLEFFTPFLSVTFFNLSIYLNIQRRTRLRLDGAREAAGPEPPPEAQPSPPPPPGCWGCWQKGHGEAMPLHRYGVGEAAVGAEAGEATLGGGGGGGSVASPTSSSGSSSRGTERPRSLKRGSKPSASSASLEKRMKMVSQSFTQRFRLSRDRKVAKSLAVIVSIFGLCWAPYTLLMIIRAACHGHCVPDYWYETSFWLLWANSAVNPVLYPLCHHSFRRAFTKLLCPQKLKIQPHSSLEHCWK
T1 sequence (P50406 whole entry): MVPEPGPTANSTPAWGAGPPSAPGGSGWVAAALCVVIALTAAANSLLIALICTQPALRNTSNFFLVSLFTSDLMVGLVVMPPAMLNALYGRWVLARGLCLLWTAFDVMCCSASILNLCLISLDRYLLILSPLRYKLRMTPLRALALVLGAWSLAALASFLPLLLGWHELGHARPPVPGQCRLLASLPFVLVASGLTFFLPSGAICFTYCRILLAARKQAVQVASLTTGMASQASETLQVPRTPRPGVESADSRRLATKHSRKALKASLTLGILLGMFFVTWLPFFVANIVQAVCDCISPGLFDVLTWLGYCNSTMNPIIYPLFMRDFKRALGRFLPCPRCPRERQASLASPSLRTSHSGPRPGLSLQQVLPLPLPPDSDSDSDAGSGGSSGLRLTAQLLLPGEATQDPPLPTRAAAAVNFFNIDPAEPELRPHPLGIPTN

With `CCN1CCC(c2ccc3c(c2)CCN3S(=O)(=O)c2ccccc2)CC1`, the inhibition – broadly, the relative decrease from the control value, in per cent – in [1] was 40%; in experiment [2] it was 54%; in experiment [3] it was 72%; in [5], 17%. In addition, the Ki (commonly the dissociation constant of the complex between target and ligand, obtained from inhibition or displacement) in [4] was 321 nM; in experiment [6] it was 448 nM.

Regarding `CCCN1CCN(c2cccc3c2CN(S(=O)(=O)c2ccccc2)C3)CC1`, the Ki in [7] amounted to 180 nM; in experiment [4], 27 nM; in [8], 4.6 nM. Besides, the inhibition in experiment [1] amounted to 98%; in [2] it was 12%; in [3], 97%; in experiment [5], 64%.

`CCN1CCC(c2ccc3c(c2)CN(S(=O)(=O)c2ccccc2)C3)CC1`: the inhibition in experiment [1] turned out to be 4%; in [2], 48%; in experiment [3], 32%; in experiment [5], 18%. Also, the Ki in experiment [6] was found to be 302 nM.

On to `O=S(=O)(c1ccccc1)N1CCc2ccc(C3CCN(C4CCC4)CC3)cc21`, for which the inhibition in experiment [1] amounted to 62%; in experiment [2], 1%; in experiment [3], 59%; in experiment [5] it was 29%. Further, the Ki in experiment [4] is 362 nM; in experiment [8], 527 nM. Moreover, the Ratio Ki in experiment [9] was under 10.

`CN1CCN(c2cccc3c2CN(S(=O)(=O)c2ccccc2)C3)CC1`: the inhibition in [1] came to 100%; in experiment [2] it was 19%; in experiment [3], 85%; in [5] it was 43%. Further, the Ki turned out to be 160 nM in experiment [4] and 2.6 nM in [8].

Turning to `CCN1CCN(c2ccc3c(c2)CN(S(=O)(=O)c2ccccc2)C3)CC1`, the inhibition in experiment [1] is -7%; in [2] it was 60%; in experiment [3] it was 61%; in [5], 22%. The Ki came out at 688 nM in experiment [4] and 294 nM in [6].

Turning to `O=S(=O)(c1ccccc1)N1CCc2ccc(N3CCN(C4CCC4)CC3)cc21`, the Ki in experiment [7] is 411 nM; in [4] it was 173 nM; in experiment [8], 186 nM. For the same molecule, the inhibition in [1] was determined as 60%; in experiment [2] it was 36%; in experiment [3], 78%; in [5], 50%. For the same molecule, the Ratio Ki in experiment [9] is under 10.

In the case of `O=S(=O)(c1ccccc1)N1Cc2ccc(N3CCN(C4CCC4)CC3)cc2C1`, the inhibition in experiment [1] was 1%; in experiment [2], 74%; in [3], 34%; in experiment [5], 1%. In addition, in [6], the Ki came out at 395 nM.

For the molecule `CCCN1CCN(c2ccc3c(c2)N(S(=O)(=O)c2ccccc2)CC3)CC1`, the Ki in experiment [7] came to 95 nM; in experiment [4], 5.7 nM; in [8] it was 125 nM. For the same molecule, the inhibition in [1] is 82%; in [2], 16%; in [3] it was 99%; in [5] it was 80%. Moreover, the Ratio Ki in [9] is under 10.

Consider `CCCN1CCC(c2ccc3c(c2)N(S(=O)(=O)c2ccccc2)CC3)CC1`, for which the Ki in [7] stood at 324 nM; in experiment [4] it was 26 nM; in experiment [8], 71 nM. The inhibition in experiment [1] was determined as 81%; in experiment [2], 14%; in experiment [3], 98%; in [5], 59%. Besides, the Ratio Ki in experiment [9] was under 10.

For `CN1CCN(c2ccc3c(c2)CCN3S(=O)(=O)c2ccccc2)CC1`, the inhibition turned out to be 84% in [1], 35% in experiment [2], 85% in [3] and 18% in [5]. Besides, the Ki in [4] worked out at 108 nM; in experiment [8], 440 nM.

In the case of `O=S(=O)(c1ccccc1)N1CCc2ccc(C3CCNCC3)cc21`, the inhibition is 91% in [1], -6% in experiment [2], 49% in experiment [3] and 27% in [5]. In addition, the inhibitory constant (Ki) stood at 517 nM in [4] and 2.7 nM in [8]. Further, the Ratio Ki in experiment [9] was under 10.

On to `CN1CCC(c2ccc3c(c2)CCN3S(=O)(=O)c2ccccc2)CC1`, for which the inhibition stood at 86% in [1], 59% in experiment [2], 48% in experiment [3] and 14% in [5]. For the same molecule, the Ki in [4] came to 401 nM; in experiment [8] it was 128 nM; in experiment [6], 299 nM.

`CN1CCN(c2cccc3c2CCN3S(=O)(=O)c2ccccc2)CC1`: the Ki was 211 nM in experiment [7], 173 nM in [4] and 8.2 nM in [8]. The inhibition in experiment [1] was 96%; in experiment [2], 17%; in experiment [3] it was 77%; in experiment [5] it was 67%. The Ratio Ki in experiment [9] came to 1.5.

As for `CCCN1CCN(c2ccc3c(c2)CCN3S(=O)(=O)c2ccccc2)CC1`, the results for the Ki in experiment [7] and in experiment [4] were 245 nM and 24 nM, respectively. For the same molecule, the inhibition turned out to be 38% in experiment [1], 39% in [2], 98% in experiment [3] and 59% in [5].

As to `O=S(=O)(c1ccccc1)N1Cc2cccc(C3CCN(C4CCC4)CC3)c2C1`, the Ki amounted to 1830 nM in experiment [7] and 42 nM in experiment [8]. In addition, the inhibition in [1] is 91%; in experiment [2], 13%; in [3] it was -5%; in [5], 49%.

`CN1CCN(c2ccc3c(c2)N(S(=O)(=O)c2ccccc2)CC3)CC1`: the Ki in experiment [7] amounted to 458 nM; in experiment [4], 68 nM; in experiment [8] it was 25 nM. Further, the inhibition is 92% in experiment [1], -7% in experiment [2], 72% in experiment [3] and 52% in [5]. In addition, the Ratio Ki in [9] is under 10.

As for `CCN1CCC(c2ccc3c(c2)N(S(=O)(=O)c2ccccc2)CC3)CC1`, the inhibition in experiment [1] amounted to 95%; in experiment [2], 11%; in [3], 86%; in experiment [5] it was 39%. Further, the Ki in experiment [4] was 95 nM; in experiment [8] it was 23 nM. In addition, the Ratio Ki in experiment [9] is under 10.

On to `CN1CCC(c2ccc3c(c2)N(S(=O)(=O)c2ccccc2)CC3)CC1`, for which the inhibition is 93% in experiment [1], 3% in experiment [2], 75% in [3] and 34% in experiment [5]. Also, the Ki amounted to 121 nM in experiment [4] and 25 nM in [8]. Also, the Ratio Ki in [9] is under 10.

With `CCN1CCN(c2cccc3c2CN(S(=O)(=O)c2ccccc2)C3)CC1`, the Ki in experiment [7] came out at 310 nM; in [4], 73 nM; in experiment [8] it was 28 nM. The inhibition was found to be 98% in experiment [1], 17% in experiment [2], 92% in experiment [3] and 55% in experiment [5].

As for `CCN1CCC(c2cccc3c2CN(S(=O)(=O)c2ccccc2)C3)CC1`, the inhibition in [1] was 98%; in experiment [2], 3%; in experiment [3], 53%; in experiment [5], 27%. Also, the Ki in experiment [4] was 562 nM; in experiment [8], 2.3 nM.

With `O=S(=O)(c1ccccc1)N1Cc2cccc(N3CCN(C4CCC4)CC3)c2C1`, the Ki was 1590 nM in [7], 525 nM in experiment [4] and 4.8 nM in experiment [8]. Moreover, the inhibition in experiment [1] is 98%; in experiment [2], 16%; in experiment [3], 72%; in experiment [5], 47%.

In the case of `CCN1CCN(c2ccc3c(c2)N(S(=O)(=O)c2ccccc2)CC3)CC1`, the Ki came to 136 nM in experiment [7], 16 nM in [4] and 60 nM in experiment [8]. For the same molecule, the inhibition in [1] turned out to be 86%; in experiment [2] it was 20%; in experiment [3], 95%; in [5], 77%. In experiment [9], the Ratio Ki is under 10.

In the case of `CCCN1CCC(c2cccc3c2CN(S(=O)(=O)c2ccccc2)C3)CC1`, the inhibition in experiment [1] stood at 92%; in experiment [2], 4%; in [3], 55%; in experiment [5], 40%. Further, the figures for the Ki in experiment [4] and in [8] were 212 nM and 21 nM, respectively.

For `CCCN1CCN(c2cccc3c2CCN3S(=O)(=O)c2ccccc2)CC1`, the results for the Ki in experiment [7], in [4] and in experiment [8] were 42 nM, 17 nM and 74 nM, respectively. The inhibition in experiment [1] worked out at 78%; in experiment [2] it was 27%; in experiment [3], 97%; in experiment [5] it was 87%. Besides, in experiment [9], the Ratio Ki stood at 1.5.

On to `O=S(=O)(c1ccccc1)N1Cc2cccc(N3CCNCC3)c2C1`, for which the inhibition in experiment [1] was 98%; in experiment [2], 11%; in [3], 61%; in [5], 29%. Also, the Ki in [4] stood at 505 nM; in experiment [8], 1.9 nM.

As to `CCCN1CCC(c2cccc3c2CCN3S(=O)(=O)c2ccccc2)CC1`, the inhibition was 45% in experiment [1], -5% in experiment [2], 56% in experiment [3] and 38% in experiment [5]. Further, the Ki is 383 nM in [4] and 1030 nM in experiment [8].

Take `O=S(=O)(c1ccccc1)N1CCc2ccc(N3CCNCC3)cc21`: the inhibition in [1] came to 95%; in experiment [2], 4%; in experiment [3] it was 58%; in experiment [5], 32%. In addition, the Ki in experiment [4] was determined as 330 nM; in [8] it was 12 nM. In experiment [9], the Ratio Ki was under 10.

These data come from ChEMBL document CHEMBL4477255, “Charting the chemical space around the (iso)indoline scaffold, a comprehensive approach towards multitarget directed ligands” (Bioorg Med Chem Lett, 2016).
